Measurements published in ChEMBL document CHEMBL1133288, “Synthesis and antiviral evaluation of nucleic acid-based (NAB) libraries” (Bioorg Med Chem Lett, 2000).

System: Vero
Assay: Compound was evaluated for inhibition of HSV-1 induced plaques in vero cells (African green monkey kidney cells)
Type: functional, cell-based
Conditions: Chlorocebus sabaeus

**Q.** Which EC50 does the source give for `Nc1nc2c(ncn2COCCO)c(=O)[nH]1` [ACYCLOVIR] here?
**A.** 6 µM
